Test results: patent publication US10364222B2, “Cyclic amine derivative and medical use thereof” (Toray Industries, Inc., priority 2016, dated 2019)

What was measured:
[1] = tested on: imiquimod-induced mouse psoriasis model; test: Imiquimod-induced mouse psoriasis model; type: in vivo; settings: BALB/c mice; 10 mg/kg orally once daily from 3 to 7 days after induction; vs vehicle, Student's t-test P<0.05
Procedure: Using increase in the ear thickness as an index of exacerbation of symptoms, the effect of the cyclic amine derivative (I) or a pharmacologically acceptable salt thereof in an imiquimod-induced mouse psoriasis model was evaluated. The imiquimod-induced mouse psoriasis model was prepared by a partially modified method by Schaper et al. (The Journal of Dermatological Science, 2013, Vol. 71, No. 1, p. 29-36).
BALB/c mice (male, 7 weeks old) (Charles River Laboratories Japan, Inc.) were used at 8 weeks old after preliminary breeding. To induce psoriasis-like symptoms, 5 mg each of BESELNA CREAM 5% was applied once daily to the outside of the right and left auricles of the mice for 8 days from the day of first administration of imiquimod (hereinafter referred to as induction day) to 7 days after induction (dose of imiquimod, 0.5 mg/body/day).
The test compound at a dose of 10 mg/kg was administered to the mice once daily for 5 days from 3 days after induction to 7 days after induction. As the test compound, the compound of Example 20, the compound of Example 29, and the compound of Example 57 were used. The compound of Example 20, the compound of Example 29, and the compound of Example 57 were suspended in a 0.5 w/v % methylcellulose solution and orally administered. The group in which the compound of Example 20 was administered to mice was defined as the Example-20 compound administration group, the group in which the compound of Example 29 was administered was defined as the Example-29 compound administration group, and the group in which the compound of Example 57 was administered was defined as the Example-57 compound administration group. In the vehicle administration group, a vehicle of each test compound (0.5 w/v % methylcellulose solution) was similarly administered.
The right and left ear thickness before administration of imiquimod (before induction) on the induction day and the right and left ear thickness on the 8th day after induction were measured with a digital micrometer (Mitutoyo Corporation). […]

[2] = target: T1, ligand-binding domain of RORγ (RORγ-LBD) (Homo sapiens, UniProt P51449); test: Inhibitory effect on RORγ-coactivator binding (LanthaScreen TR-FRET RORγ Coactivator Assay); settings: at 33 μmol/L of the test compound; read-out: RORγ-coactivator binding inhibition rate (%)
T1 construct: purchased Invitrogen
T1 sequence (P51449 269-508 limits assumed): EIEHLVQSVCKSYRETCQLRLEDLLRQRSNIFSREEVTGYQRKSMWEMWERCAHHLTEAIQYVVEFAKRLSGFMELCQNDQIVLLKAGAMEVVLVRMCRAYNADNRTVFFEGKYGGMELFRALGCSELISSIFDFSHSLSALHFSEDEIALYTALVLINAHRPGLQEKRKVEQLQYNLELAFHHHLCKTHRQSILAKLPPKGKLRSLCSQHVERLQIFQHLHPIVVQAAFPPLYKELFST
Procedure, shortened: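 TR-FRET: 4 nmol/L GST-RORγ-LBD with compound (1% DMSO) in Coregulator Buffer D plus 5 mmol/L DTT, then 150 nmol/L fluorescein-TRAP220/DRIP-2 and 32 nmol/L Tb-anti-GST antibody; 16–24 hours at room temperature. 520/495 nm ratio (320 nm excitation), background-corrected against control, gives % inhibition of coactivator binding.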

inhibition at 33 µM [2] [%] | SMILES | change in the ear thickness (ear thickness on the 8th day after induction − before induction) [1]
101 | CN(CC(=O)N1CCCC[C@@H]1C(=O)Nc1ccc(-c2ccccc2OC(F)(F)F)c(Cl)c1)S(C)(=O)=O [Example 29, (R)-N-(2-chloro-2′-(trifluoromethoxy)-[1,1′-biphenyl]-4-yl)-1-(2-(N-methylmethylsulfonamide)acetyl)piperidine-2-carboxamide] | statistically significantly suppressed
103 | O=C(Nc1ccc(-c2ccccc2OC(F)(F)F)c(Cl)c1)[C@H]1CCCCN1C(=O)Cn1cnnn1 [Example 57, (R)-1-(2-(1H-tetrazol-1-yl)acetyl)-N-(2-chloro-2′-(trifluoromethoxy)-[1,1′-biphenyl]-4-yl)piperidine-2-carboxamide] | statistically significantly suppressed
101 | CC(=O)N1CCCC[C@@H]1C(=O)Nc1ccc(-c2ccccc2OC(F)(F)F)c(Cl)c1 [Example 20, (R)-1-acetyl-N-(2-chloro-2′-(trifluoromethoxy)-[1,1′-biphenyl]-4-yl)piperidine-2-carboxamide] | statistically significantly suppressed
